Converted amounts (≈) assume the structure as drawn. Numbered stars: 1 amine (or outer) side, 2 acyl side, 3 side chain; on linkers, the order of the positions; unused ones are H or OH. Bridge positions count the residues as written; N and C are the ends. Peptide text beside a SMILES is read from it. * marks the point of attachment. C20 diacid = O=C(O)CCCCCCCCCCCCCCCCCCC(=O)*; γGlu = O=C(O)[C@H](CCC(=O)[*:2])N[*:1]
How the values were obtained:
rCTR = molecular target: T1, rCTR (Rattus norvegicus, UniProt P32214); test: scintillation proximity binding assay, rCTR membranes; conditions: SPA binding assay, Tables S13 and S15
T1 construct: expressed in transfected cells; host or cells: BHK tk-ts 13, transient (FuGENE 6)
T1 sequence (P32214 25-479 isoform P32214-2 limits assumed): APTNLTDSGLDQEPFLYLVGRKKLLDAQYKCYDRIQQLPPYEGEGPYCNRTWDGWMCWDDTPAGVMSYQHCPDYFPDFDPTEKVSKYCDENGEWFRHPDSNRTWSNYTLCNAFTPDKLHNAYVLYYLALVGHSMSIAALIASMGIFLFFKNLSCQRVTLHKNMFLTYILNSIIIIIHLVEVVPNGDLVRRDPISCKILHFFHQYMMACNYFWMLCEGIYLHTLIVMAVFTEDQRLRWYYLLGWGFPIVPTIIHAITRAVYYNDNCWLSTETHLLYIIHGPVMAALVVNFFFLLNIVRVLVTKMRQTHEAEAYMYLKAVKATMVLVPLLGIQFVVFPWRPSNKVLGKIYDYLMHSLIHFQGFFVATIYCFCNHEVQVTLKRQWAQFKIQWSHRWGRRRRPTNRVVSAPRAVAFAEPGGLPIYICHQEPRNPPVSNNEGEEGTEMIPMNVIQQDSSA
Protocol: The apparent binding affinities were determined using a scintillation proximity assay with beads from PerkinElmer and cell membranes containing the AMY3R or CTRs. […] Membranes were harvested and membranes were prepared and kept at −80 °C until use. The assay was performed in a 384-well Optiplate (PerkinElmer). Membranes were mixed with scintillation proximity assay beads in a 1:1 ratio. […] Samples were analyzed on a TopCounter (Packard). The IC50 values were calculated using GraphPad Prism. See Supporting Information S7: SAR Screening Assay Methods (Binding Assays (Human and Rat)) for more information.
Binding Assays (Human and Rat). Brief descriptions of the methods used to determine binding affinities for SAR analysis are described below. Curves and IC50 values were plotted and calculated in GraphPad Prism using nonlinear regression (one site binding competition analysis), with pIC50 values […]
values were used to calculate the binding affinity ratios in order to express the selectivity of compounds for the AMY3R versus the CTR.
CTR Binding Assay. The binding assay was performed using scintillation proximity assay (SPA) beads (RPNQ0001) from PerkinElmer and cell membranes containing either the hCTR or rCTR. BHK […]
Membranes were prepared in the following way: the cells were rinsed with PBS and incubated with Versene for approximately 5 min before harvesting. The cells were flushed with PBS and the cell-suspension was centrifuged for 5 min at 1000 rpm. Cells were homogenized (Ultra Turrax) in a buffer […]
containing 20 mM Na-HEPES and 0.1 mM EDTA (pH 7.4, buffer 2). The resulting pellet was re-suspended in buffer 2 and protein concentration was measured (BCA protein assay, Pierce). The homogenate was kept cold during the whole procedure. The membranes were stored at –80 °C until […]
The binding assay was performed in a 384-well Optiplate (PerkinElmer) in a total volume of 40 μL.
Membranes were mixed with SPA beads in a 1:1 ratio. […]
mg/well. Test compounds were dissolved in DMSO and further diluted in assay buffer (50 mM HEPES, pH 7.4, 1 mM CaCl2, 5 mM MgCl2, 0.1% ovalbumin, and 0.02% Tween-20).
Calcitonin (NEX422 PerkinElmer) was dissolved in assay buffer and added to the Optiplate at a final […]
prior to centrifugation (1500 rpm, 10 min). Samples were analyzed on TopCounter (Packard).

[1] = Solubility versus pH profile
rats = test: Acute food intake in rats; format: in vivo, rat; conditions: single sc injection of 30 nmol/kg, relative to vehicle, mean ± SEM, n = 5–7 per group
hCTR = molecular target: T2, hCTR (Homo sapiens, UniProt P30988); test: scintillation proximity binding assay, hCTR membranes; design: expressed in transfected cells; host or cells: BHK tk-ts 13, transient (FuGENE 6); membranes for the SPA, whole cells for the species-specific assays; conditions: SPA binding assay, Tables S13 and S15
T2 sequence (P30988 25-474): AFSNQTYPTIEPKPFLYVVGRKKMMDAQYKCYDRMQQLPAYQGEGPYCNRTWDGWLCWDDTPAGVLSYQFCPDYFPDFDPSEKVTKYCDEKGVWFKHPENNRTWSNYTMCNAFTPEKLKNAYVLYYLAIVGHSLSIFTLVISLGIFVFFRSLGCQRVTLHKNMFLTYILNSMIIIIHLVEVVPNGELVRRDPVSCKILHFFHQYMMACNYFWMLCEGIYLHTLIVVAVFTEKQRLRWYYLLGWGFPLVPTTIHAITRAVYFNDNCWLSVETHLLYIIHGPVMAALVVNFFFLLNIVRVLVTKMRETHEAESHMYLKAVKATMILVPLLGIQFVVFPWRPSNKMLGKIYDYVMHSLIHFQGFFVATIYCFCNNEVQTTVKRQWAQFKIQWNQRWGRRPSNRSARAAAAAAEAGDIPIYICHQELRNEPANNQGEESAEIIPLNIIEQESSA

[2] = HMWP content by size-exclusion chromatography; format: physicochemical; conditions: analogs 10–21 (pH 4.0 series); covalent dimers and polymers prior to fibril formation testing, SEC, % of total absorbance area at 215 nm
In short: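 Amylin analogs analysed before fibril-formation testing by isocratic SEC in 0.5 M NaCl, 10 mM sodium dihydrogen phosphate, 5 mM ortho-phosphoric acid, 50% (v/v) 2-propanol. HMWP (covalent dimers/polymers) given as peak absorbance area percentage of total, assuming equal extinction coefficients for HMWP and main peak.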

[3] = bis-tris-propane buffer, pH 6, aqueous buffer
[4] = bis-tris-propane buffer, pH 6.5, aqueous buffer
[5] = bis-tris-propane buffer, pH 7, aqueous buffer
[6] = bis-tris-propane buffer, pH 7.5, aqueous buffer
[7] = bis-tris-propane buffer, pH 8, aqueous buffer
[8] = lactate buffer, pH 4, aqueous buffer
[9] = lactate buffer, pH 5, aqueous buffer

| rCTR pIC50 (rCTR) | solubility kinetic [1, 3] [µM] | solubility kinetic [1, 4] [µM] | solubility kinetic [1, 5] [µM] | solubility kinetic [1, 6] [µM] | solubility kinetic [1, 7] [µM] | solubility kinetic [1, 8] [µM] | solubility kinetic [1, 9] [µM] | hCTR pIC50 (hCTR) | HMWP [2] [%] | SMILES | Acute food intake reduction 24–48 h (rats) [%] | Acute food intake reduction 0–24 h (rats) [%] |
| --- | --- | --- | --- | --- | --- | --- | --- | --- | --- | --- | --- | --- |
| 8.22 | ≥ 200 | ≥ 200 | ≥ 200 | ≥ 200 | ≥ 200 | ≥ 200 | ≥ 200 | 8.96 | 3.9 | CC[C@H](C)[C@H](NC(=O)[C@H](C)NC(=O)CNC(=O)[C@H](Cc1ccccc1)NC(=O)[C@H](CC(N)=O)NC(=O)[C@@H]1CCCN1C(=O)[C@H](CO)NC(=O)[C@H](CO)NC(=O)[C@H](Cc1c[nH]cn1)NC(=O)[C@H](CCCNC(=N)N)NC(=O)[C@H](CC(C)C)NC(=O)[C@H](Cc1ccccc1)NC(=O)[C@H](CCC(=O)O)NC(=O)[C@H](C)NC(=O)[C@H](CC(C)C)NC(=O)[C@H](CCCNC(=N)N)NC(=O)[C@H](CCC(N)=O)NC(=O)[C@@H](NC(=O)[C@H](C)NC(=O)[C@@H]1CSSC[C@H](NC(=O)[C@H](CCCCN)NC(=O)CC[C@H](NC(=O)CCCCCCCCCCCCCCCCCCC(=O)O)C(=O)O)C(=O)N[C@@H](CC(N)=O)C(=O)N[C@@H]([C@@H](C)O)C(=O)N[C@@H](C)C(=O)N[C@@H]([C@@H](C)O)C(=O)N1)[C@@H](C)O)C(=O)N1CCC[C@H]1C(=O)N[C@@H](CO)C(=O)N[C@@H](CO)C(=O)N[C@H](C(=O)N[C@@H](CC(N)=O)C(=O)N[C@H](C(=O)NCC(=O)N1CCC[C@H]1C(=O)N[C@@H](CC(N)=O)C(=O)N[C@H](C(=O)N[C@@H](Cc1ccc(O)cc1)C(N)=O)[C@@H](C)O)C(C)C)[C@@H](C)O [Peptide 12] ({C20 diacid-γGlu}-KCNTATCATQRLAEFLRHSSPNFGAIPSSTNVGPNTY-NH2; disulfide 2-7) | 7 ± 7 | – |
| 7.02 | ≥ 200 | ≥ 200 | ≥ 200 | ≥ 200 | ≥ 200 | ≥ 200 | ≥ 200 | 7.71 | 2.2 | CC[C@H](C)[C@H](NC(=O)[C@H](C)NC(=O)CNC(=O)[C@H](Cc1ccccc1)NC(=O)[C@H](CC(N)=O)NC(=O)[C@@H]1CCCN1C(=O)[C@H](CO)NC(=O)[C@H](CO)NC(=O)[C@H](Cc1c[nH]cn1)NC(=O)[C@H](CCCNC(=N)N)NC(=O)[C@H](CC(C)C)NC(=O)[C@H](Cc1ccccc1)NC(=O)[C@H](CC(N)=O)NC(=O)[C@H](C)NC(=O)[C@H](CC(C)C)NC(=O)[C@H](CCCNC(=N)N)NC(=O)[C@H](CCC(N)=O)NC(=O)[C@@H](NC(=O)[C@H](C)NC(=O)[C@@H]1CSSC[C@H](NC(=O)[C@H](CCCCN)NC(=O)CC[C@H](NC(=O)CCCCCCCCCCCCCCCCCCC(=O)O)C(=O)O)C(=O)N[C@@H](CC(N)=O)C(=O)N[C@@H]([C@@H](C)O)C(=O)N[C@@H](C)C(=O)N[C@@H]([C@@H](C)O)C(=O)N1)[C@@H](C)O)C(=O)N1CCC[C@H]1C(=O)N[C@@H](CO)C(=O)N[C@@H](CO)C(=O)N[C@H](C(=O)N[C@@H](CC(N)=O)C(=O)N[C@H](C(=O)NCC(=O)N[C@@H](CCCNC(=N)N)C(=O)N[C@@H](CC(N)=O)C(=O)N[C@H](C(=O)N[C@@H](Cc1ccc(O)cc1)C(N)=O)[C@@H](C)O)C(C)C)[C@@H](C)O [Peptide 16] | 4 ± 5 | 32 ± 4 |
| 7.77 | ≥ 200 | ≥ 200 | ≥ 200 | 50 (≈ 224 µg/mL) | 68 (≈ 305 µg/mL) | ≥ 200 | ≥ 200 | 7.81 | 0.3 | CC[C@H](C)[C@H](NC(=O)[C@H](C)NC(=O)CNC(=O)[C@H](Cc1ccccc1)NC(=O)[C@H](CC(N)=O)NC(=O)[C@@H]1CCCN1C(=O)[C@H](CO)NC(=O)[C@H](CO)NC(=O)[C@H](Cc1c[nH]cn1)NC(=O)[C@H](CCCNC(=N)N)NC(=O)[C@H](CC(C)C)NC(=O)[C@H](Cc1ccccc1)NC(=O)[C@H](CC(N)=O)NC(=O)[C@H](C)NC(=O)[C@H](CC(C)C)NC(=O)[C@H](CCCNC(=N)N)NC(=O)[C@H](CCC(N)=O)NC(=O)[C@@H](NC(=O)[C@H](C)NC(=O)[C@@H]1CSSC[C@H](NC(=O)[C@H](CCCNC(=N)N)NC(=O)CNC(=O)CC[C@H](NC(=O)CCCCCCCCCCCCCCCCCCC(=O)O)C(=O)O)C(=O)N[C@@H](CC(N)=O)C(=O)N[C@@H]([C@@H](C)O)C(=O)N[C@@H](C)C(=O)N[C@@H]([C@@H](C)O)C(=O)N1)[C@@H](C)O)C(=O)N1CCC[C@H]1C(=O)N[C@@H](CO)C(=O)N[C@@H](CO)C(=O)N[C@H](C(=O)N[C@@H](CC(N)=O)C(=O)N[C@H](C(=O)NCC(=O)N[C@@H](CO)C(=O)N[C@@H](Cc1c[nH]cn1)C(=O)N[C@H](C(=O)N[C@@H](Cc1ccc(O)cc1)C(N)=O)[C@@H](C)O)C(C)C)[C@@H](C)O [Peptide 19] ({C20 diacid-γGlu}-GRCNTATCATQRLANFLRHSSPNFGAIPSSTNVGSHTY-NH2; disulfide 3-8) | 6 ± 7 | – |
